The test system of one test is HCT116 cells. Briefly: Cytotoxicity assay (ATPLite, 72 hours). The test is classed as cell-based. Particulars: Homo sapiens, HCT-116, ATPLite luminescence. The protocol:
HCT116 cells are seeded into black 96-well plates at 5,000 cells per well in 100 microliters (DMEM supplemented with 10% serum) and are incubated overnight. […] Plates are equilibrated to room temperature (5 min). Fifty microliters lysis buffer followed by 50 microliters substrate solution (ATPLite [2 step], Perkin-Elmer, #601941) is added to each well, and plates are incubated at room temperature 5 minutes. Luminescence is then measured (TopCount, Perkin-Elmer).
A general note: Cellular ATP, detected with luciferase, serves as a proxy for viable cell number.

A further test has as its target purified human Hsp90. Briefly: Hsp90 binding assay (fluorescence polarization, displacement of BODIPY-geldanamycin). Particulars: displacement of BODIPY-GM (10 nM) from purified human Hsp90 (30 nM), overnight at room temperature. In general terms: In fluorescence polarisation assays a small probe gives low polarisation when free and higher when bound to something large.

Data on 2 compounds can be found in US20130053406A1, “THERAPEUTIC COMPOUNDS AND USES THEREOF” (Myrexis, Inc., priority 2009, published 2013).

pIC50: −log10 of the molar value.

Broadly, the pIC50 is the negative decadic logarithm of the IC50, by convention in mol/L. Read a low pIC50 as a high IC50.

Procedure for purified human Hsp90: Plates are incubated overnight at room temperature. Parallel and perpendicular fluorescence measurements are read (LJL BioSystems Analyst AD plate reader) at excitation/emission wavelengths of 485/530 nm. Background fluorescence (buffer only) is subtracted, and fluorescence polarization (FP) values, expressed in mP units, are calculated from parallel and perpendicular fluorescence readings as follows:
Percent inhibition is calculated by normalizing the FP values to those obtained in parallel reactions containing DMSO and subtracting these normalized values from 100%. Intrinsic compound fluorescence is independently monitored, and FP data points confounded by compound fluorescence are excluded from the analysis.

Turning to `[2H]C1([2H])Oc2cc(Br)c(Sc3nc4c(N)ncnc4n3CCC3CCN(C(=O)[C@H](C)OC(C)=O)CC3)cc2O1` [(2S)-1-[4-(2-{6-amino-8-[(6-bromo-2,2-d2-benzo[d][1,3]dioxol-5-yl)sulfanyl]-9H-purin-9-yl}ethyl)piperidin-1-yl]-1-oxopropan-2-yl acetate], the pIC50 is 6.14 in the test on HCT116 cells and 7.11 at purified human Hsp90.
In the case of `[2H]C1([2H])Oc2cc(Br)c(Sc3nc4c(N)ncnc4n3CCC3CCN(C(=O)[C@H](C)O)CC3)cc2O1` [(2S)-1-[4-(2-{6-amino-8-[(6-bromo-2,2-d2-benzo[d][1,3]dioxol-5-yl)sulfanyl]-9H-purin-9-yl}ethyl)piperidin-1-yl]-2-hydroxypropan-1-one], the results for the pIC50 in the test with HCT116 cells and at purified human Hsp90 were 5.92 and 6.60, respectively.
